Starred links: 1 amine or outer side, 2 acyl side, 3 side chain; linkers in the order of their positions; H or OH if unused. Positions of bridges follow the written chain, without caps; N, C: chain ends. Non-standard residues stand in square brackets, D forms with d. Residues, ends and D or L forms follow the SMILES beside them. Chains are numbered I, II in the order given. No end group written: not given here. ξ: configuration not given here. *: point of attachment. X1 = CC1(C)C(/C=C/C(=C/C=C2\N(CCCS(=O)(=O)O)c3ccc(S(=O)(=O)O)cc3C2(C)C)c2cccc(CCC(=O)NCCN3C(=O)CC(*)C3=O)c2)=Nc2c1cc(Cl)c[n+]2CCCS(=O)(=O)[O-]; X3 = N=c1ccc2c(-c3ccc(C(=O)NCCCCCN4C(=O)CC(*)C4=O)cc3C(=O)O)c3ccc(N)c(S(=O)(=O)O)c3oc-2c1S(=O)(=O)O; X2 = O=C(CCCCCN1C(=O)CC(*)C1=O)NNC(=O)CCCCC1SC[C@H]2NC(=O)N[C@@H]12; NH(CH2CH2O)5CH2CO = O=C(COCCOCCOCCOCCOCCN[*:1])[*:2]; ξIle = CC[C@H](C)C(N)C(=O)O; Orn = NCCC[C@H](N)C(=O)O; AEA = NCCOCC(=O)O
Key:
[1] = background statement; cited from earlier work
[2] = test system: CHO-pgsA-745 cells (GAG-deficient mutant); assay: Flow cytometry binding of biotinylated compounds to CHO cells (Example 3); assay type: cell-based; settings: 30 min at 4 °C, streptavidin-680RD fluorescence; FIG. 3B
Protocol: (§1) Cell lines in exponential growth phase were cultured in complete culture medium with 10% FBS and grown in 75 cm^2 cell culture flasks. On the day of the experiment, cells were harvested and transferred in V-bottom culture plates, washed with PBS 1× supplemented with BSA 3% and then incubated with (51-hS)2KC-Mal-Biotin, (51-hS)2KS-(51-hS)KC-Mal-Biotin, [(51-hS)2KS]2KK(Biotin) and VAR2-Biotin for 30 min at 4° C. in PBS 1× supplemented with BSA 3% (and eventually PEG600 2%) at various dilutions (serial dilutions).
(§2) After the incubation, cells were washed in PBS 1× supplemented with BSA 3%. For visualization, cells were incubated for 15 min at 4° C. with streptavidin coupled to 680RD fluorochrome. After the incubation, cells were washed in PBS 1× supplemented with 3% BSA and then incubated for at least 15 min at 4° C. with 4′,6-diamidino-2-phenylindole (DAPI) (Thermo Fisher Scientific) in order to exclude dead cells. Samples were directly applied to a flow cytometer. Data generated on the flow cytometer was analyzed using Flowjo™ 10.6.0.

[3] = test system: CHO-K1 cells (wild type, GAG present); assay: as above; assay type: cell-based; settings: 30 min at 4 °C, streptavidin-680RD fluorescence; FIG. 3A
Protocol: as §1, §2

[4] = test system: HCT-116 cells (colon carcinoma); assay: Internalization in adherent cells, Trypan Blue quenching flow cytometry (Example 6); assay type: cell-based; settings: 200 nM, 37 °C, FIG. 8
Protocol: Adherent cell lines in exponential growth phase were cultured in complete culture medium with 10% FBS and grown in flat-bottom culture plates. On the day of the experiment, cells were washed with culture medium supplemented with 3% BSA (Sigma-Aldrich) and then incubated with peptides coupled with A488 fluorochrome for various timepoints (from 5 to 160 min) at a single concentration or at various dilutions (serial dilutions) at a determined timepoint at 37° C. in the corresponding culture medium supplemented with 3% BSA. After the incubation, cells were washed in PBS 1× and detached using trypsin. Following trypsinization, cells were washed in PBS 1× supplemented with 3% BSA and then incubated for at least 15 min at 4° C. with DAPI (Thermo Fisher Scientific) in order to exclude dead cells. Right before acquisition on a flow cytometer, samples were divided in two. The first series of samples was acquired directly on a flow cytometer whereas the second series was supplemented with Trypan Blue in order to observe the internal fluorescence only. The percentage of internalization was further determined.
Fluorescence geometric mean of samples is standardised by subtracting fluorescence geometric mean of negative control (no compound) and the addition of 1.

CHO-K1 (WT) cells = assay: Flow cytometry binding of 680RD-labelled PEG variants to CHO cells (Example 4); assay type: cell-based; settings: 680RD fluorescence, 30 min at 4 °C, BSA 3% + PEG600 2%; FIGS. 4 and 5
Protocol: as §1, with “Tumor cell” for “Cell”, “compounds of the present invention coupled with 680RD fluorochrome” for “(51-hS)2KC-Mal-Biotin, (51-hS)2KS-(51-hS)KC-Mal-Biotin, [(51-hS)2KS]2KK(Biotin) and VAR2-Biotin”, “and” for “(and eventually”, “2%” for “2%)”
After the incubation, cells were washed in PBS 1× supplemented with BSA 3%.
After the incubation, cells were washed in PBS 1× supplemented with 3% BSA and then incubated for at least 15 min at 4° C. with DAPI (Thermo Fisher Scientific) in order to exclude dead cells and samples are directly acquired on a flow cytometer. Data generated on the flow cytometer was analyzed using Flowjo™ 10.6.0.

HCT 116 tumor xenograft = assay: In vivo biodistribution by Optical Imaging in HCT 116 xenografted mice (Example 9); design: species or system athymic nude mice
Protocol: For this purpose, HCT 116 cells were subcutaneously inoculated into the shoulder of athymic nude mice, and then the fluorescently-labelled compound was administered intravenously.
Optical Imaging was used to evaluate fluorescent signals in mice 0.5, 1, 3, 8, 24, and 72 hours after the administration of [(51-hS)2KS]2KC-Mal-680RD at 3 different concentrations. Flow cytometry was also used to evaluate the tumor target expression in xenografted mice.
HCT-116 cells were grown in McCoy's 5a medium supplemented with 10% foetal bovine serum, 100 IU/mL penicillin and 100 μg/mL streptomycin. The trypan-blue exclusion test was used to assess cell viability before cells inoculation. An aliquot (10 μL) of cell suspension was mixed with an equal amount of 0.4% trypan blue solution in PBS. 10 μL of the final solution was introduced in a counting chamber (hemocytometer). Viable cells appear round and bright, while damaged cells appear deep blue because of the incorporation of the trypan dye. Cell viability was expressed as % of viable cells over total cells). Cell cultures with viability of less than 70% were discarded.
HCT 116 cells were collected and washed two times with PBS. One million of HCT 116 cells were suspended in 1:1 Matrigel™: McCoy's 5a (total volume 0.15 mL) and then injected subcutaneously into the shoulder of each female mouse of groups A, B, C.
Animals were randomly assigned to the following experimental groups, Table 12.
All animals were dosed once according to Table 12 when the tumors reached approximately 500-600 mm^3. The solutions were injected intravenously via the tail vein at the administration volume of 100 μL. After each injection the tail vein was flushed with 100 μL of sterile saline solution. All animals were individually inspected before the treatment and 0.5, 1, 3, 8, 24, and 72 hours after treatment.
Clinical signs of the animals, such as posture, movement, breath, external body appearance, and any other relevant clinical sign were recorded. Mice of groups A, B, and C were anesthetized under 3-4% Sevoflurane gas anaesthesia (O2 95.0%) and imaged 0.5, 1, 3, 8, 24, and 72 hours post treatments. Mice were irradiated with filtered light of wavelength 675 nm and an image of emission light intensity was collected at 720 nm wavelength. Field of View, fstop, Binning and Exposition Time were determined during experimental setting. Regions of interest (ROIs) were selected by an operator over the acquired supine, dorsal, and side views. The signal intensity within the ROIs was determined automatically by the software. At the end of the experiment the mice were sacrificed and tumors were excised to measure ex vivo the fluorescent signal intensity.

[5] = test system: chondroitin-6-sulfate (C6S); assay: ELISA binding to purified GAGs (Example 1); settings: SAV-HRP/TMB absorbance 450 nm, binding at pH 6.4 for 1 hour at 37 °C, FIG. 1
Protocol: (§3) ELISA plates were coated with various purified GAGs (Sigma, AMBIO) in PBS pH 7.4 for 2 hours at 37° C. Plates were blocked overnight at 4° C. with 200 μl of PBS pH 7.4, Tween 0.05%+BSA 3%+PEG400 2%, then washed twice with fresh buffer TSCM pH 6.4 ((Tris 20 mM, NaCl 150 mM, BSA 1%, Tween 0.05%, 2 mM MgCl2, 2 mM CaCl2). Binding of the different peptides at serial dilution was conducted in TSCMP (TSCM+2% (w/v) PEG 600) pH 6.4 for 1 hour at 37° C. (100 ul per well). Plates were washed three times with fresh TSCM pH 6.4 (200 ul per well) and SAV-HRP was added at a dilution of 1/8000 (100 ul per well) for 20 min at room temperature. Following 3 washes with PBS pH 7.4, 3,3′,5,5′-tetramethylbenzidine (TMB) substrate was added for 10 min (100 ul per well), protected from light. The reaction was stopped by addition of 100 μl of 1 M H2SO4 and the absorbance at 450 nm was measured.
(§4) The GAGs tested in this example were: C4Str: chondroitin-4-sulfate(tracheal); C4Sns: chondroitin-4-sulfate (nasal); CSPG: chondroitin sulfate proteoglycan; C6S: chondroitin-6-sulfate; HA: hyaluronic acid; HEP: heparin; HS: heparan sulfate; DS: dermatan sulfate; PBS: PBS negative control.

[6] = test system: chondroitin-4-sulfate (C4S); assay: ELISA binding to purified GAGs (Example 1); settings: SAV-HRP/TMB absorbance 450 nm, binding at pH 6.4 for 1 hour at 37 °C, FIG. 1
Protocol: as §3, §4

## CCc1c2c(nc3ccc(O)cc13)-c1cc3c(c(=O)n1C2)COC(=O)[C@]3(O)CC [SN-38]
[1]
  activity relative to irinotecan: 1000 times
  potency relative to irinotecan in in vitro cytotoxicity assays: 2- to 2000 fold

## CC[C@H](C)C(NC(=O)[C@H](CCCNC(=N)N)NC(=O)[C@H](NC(=O)[C@H](Cc1ccccc1)NC(=O)[C@H](Cc1ccc(O)cc1)NC(=O)[C@H](CCCNC(=N)N)NC(C)=O)C(C)C)C(=O)N[C@@H](CCCN)C(=O)N[C@@H](Cc1ccc(O)cc1)C(=O)N[C@@H](CCCNC(=N)N)C(=O)N[C@H](Cc1c[nH]cn1)C(=O)N[C@@H](CO)C(=O)N[C@@H](CCCCNC(=O)[C@H](CO)NC(=O)[C@@H](Cc1c[nH]cn1)NC(=O)[C@H](CCCNC(=N)N)NC(=O)[C@H](Cc1ccc(O)cc1)NC(=O)[C@H](CCCN)NC(=O)[C@@H](NC(=O)[C@H](CCCNC(=N)N)NC(=O)[C@H](NC(=O)[C@H](Cc1ccccc1)NC(=O)[C@H](Cc1ccc(O)cc1)NC(=O)[C@H](CCCNC(=N)N)NC(C)=O)C(C)C)[C@@H](C)CC)C(=O)N[C@@H](CO)C(=O)N[C@@H](CCCCNC(=O)[C@H](CO)NC(=O)[C@@H](Cc1c[nH]cn1)NC(=O)[C@H](CCCNC(=N)N)NC(=O)[C@H](Cc1ccc(O)cc1)NC(=O)[C@H](CCCN)NC(=O)[C@@H](NC(=O)[C@H](CCCNC(=N)N)NC(=O)[C@H](NC(=O)[C@H](Cc1ccccc1)NC(=O)[C@H](Cc1ccc(O)cc1)NC(=O)[C@H](CCCNC(=N)N)NC(C)=O)C(C)C)[C@@H](C)CC)C(=O)N[C@@H](CSC1CC(=O)N(CCCCCC(=O)NNC(=O)CCCCC2SC[C@H]3NC(=O)N[C@@H]23)C1=O)C(N)=O (some centres unmarked) [(51-hS)2KS-(51-hS)KC-Mal-Biotin] (I: Ac-RYF[dV]R[ξIle][Orn]YR[dH]SKSKC(X2)-NH2 / II: Ac-RYF[dV]RI[Orn]YR[dH]S / III: Ac-RYF[dV]RI[Orn]YR[dH]S; amide I:12-II:C, I:14-III:C)
[2]
  reduction of fluorescence on CHO-pgsA-745 as compared with fluorescence on CHO-K1 cells: 209.9 fold
[3]
  binding on CHO-K1 cells, times better than (51-hS)2KC-Mal-Biotin: 17.9 ×

## I: Ac-RYF[dV]R[ξIle][Orn]YR[dH]SKSKC(X3)-NH2 / II: Ac-RYF[dV]RI[Orn]YR[dH]SKS / III: Ac-RYF[dV]RI[Orn]YR[dH]S / IV: Ac-RYF[dV]RI[Orn]YR[dH]S (amide I:12-III:C, I:14-II:C, II:12-IV:C) [[(51-hS)2KS]2KC-Mal-Alexa488]
[4]; time course up to 160 min
  extent of internalisation in HCT-116 cells: 85%
[4]
  time after which 70% is internalised in HCT-116 cells: 40 min

## [(51-hS)2K(PEG5)]2KC-Mal-680RD: Four copies of SEQ ID NO:37, structure comprising SEQ ID NO:7 (n is 5), L-Cys conjugated to IRDye 680RD Maleimide (chain 1 RYF[dV]RI[Orn]YR; chain 2 [dH]SK[NH(CH2CH2O)5CH2CO]KC(IRDye 680RD maleimide); also: four peptide copies on branched Lys scaffold, further copies not in the chains)
CHO-K1 (WT) cells
  binding on CHO-K1 cells compared with [(51-hS)2KS]2KC-Mal-680RD: increased binding

## I: Ac-RYF[dV]R[ξIle][Orn]YR[dH]SKSKC(X1)-NH2 / II: Ac-RYF[dV]RI[Orn]YR[dH]SKS / III: Ac-RYF[dV]RI[Orn]YR[dH]S / IV: Ac-RYF[dV]RI[Orn]YR[dH]S (amide I:12-III:C, I:14-II:C, II:12-IV:C) [[(51-hS)2KS]2KC-Mal-680RD]
HCT 116 tumor xenograft; group B 20 nmol/mouse i.v. vs 4 nmol/mouse, dependent on dose and on blocking compound
  tumor signal of group B relative to other groups: higher tumor signal
HCT 116 tumor xenograft; groups A and B, all imaging times, FIGS. 12 and 13
  tumor to muscle ratio of fluorescence signal: almost two-fold
HCT 116 tumor xenograft; groups A, B, C (4, 20, 4 + 16 unlabeled nmol/mouse i.v.), imaging 0.5-72 h, independent of dose or blocking compound
  fluorescence signal (Average Radiant Efficiency) in the abdominal region, mainly liver and intestine: strong signal
HCT 116 tumor xenograft; tumor of all groups, mainly groups A and B, i.v., imaging 0.5-72 h
  fluorescence signal (Average Radiant Efficiency) in the tumor: presence of a signal

## [(51-hS)2K(PEG1)]2KC-Mal-680RD: Four copies of SEQ ID NO:37, structure comprising SEQ ID NO:7 (n is 1), L-Cys conjugated to IRDye 680RD Maleimide (chain 1 RYF[dV]RI[Orn]YR; chain 2 [dH]SK[AEA]KC(IRDye 680RD maleimide); also: four peptide copies on branched Lys scaffold, further copies not in the chains)
CHO-K1 (WT) cells
  binding on CHO-K1 cells compared with [(51-hS)2KS]2KC-Mal-680RD: increased binding

## RYFvRIOYR (RYF[dV]RI[Orn]YR) [SEQ ID NO:37, Peptide moiety 51]
[5]
  binding affinity to C6S: binds specifically
[6]
  binding affinity to C4S: binds specifically

From patent US20240108739A1, “OLIGOMERIC COMPOUNDS BINDING SPECIFICALLY TO PROTEOGLYCANS” (PHI PHARMA SA, priority 2020, published 2024)
